The assay has as its system CT-26 colorectal tumor cells. In words: CT-26 syngeneic colon carcinoma model, escalating i.p. doses (Example 9). Format: in vivo, Balb/c mice. The text has this: The CT26 mouse colon carcinoma (CT26.WT; ATCC #CRL-2638) cell line was obtained from ATCC. It is an N-nitroso-N-methylurethane-(NNMU) induced, undifferentiated colon carcinoma cell line known in the art. For example, it is described in: Wang M, et al. Active immunotherapy of cancer with a nonreplicating recombinant fowlpox virus encoding a model tumor-associated antigen. J. Immunol. 154: 4685-4692, 1995 (PubMed: 7722321), which is incorporated by reference in its entirety herein. For preparation of tumor cells, A frozen (−140° C.) vial of CT-26 (mouse colon carcinoma cells), from ATCC (cat # CRL-2638, lot #59227052) are thawed and cultured in basic RPMI (with 10% FBS) media over the following week.
CT-26 cells (passage 12) are harvested from the flask in complete medium. Cells are centrifuged and resuspended in RPMI (without FBS), this step is repeated 3 times. Cell density and viability are checked via trypan blue exclusion. Cells are then diluted to desired density (5×10^5 cells per mL) and kept on ice.
Escalating doses of CRX 527 are evaluated for their efficacy in reducing tumor growth. Animals are weighed and innoculated on the right hind quarter with 0.5×10^5 CT26 tumor cells per mouse on Day 0. A total of 130 mice are inoculated with tumor cells—assuming 30% failure rate (either too big or too small at time of start of study), the goal is to have n=10 for each group. After tumor cell innoculation, tumor growth and total body weight are measured 3 times a week for the duration of the study. Randomization occurs on day 10 or 11 when the average tumor volume is approximately 100 mm^3. Begining on the day of randomization, animals are dosed with CRX 527 or vehicle i.p. biweekly, for a total of 6 doses. Mice remain on study until tumors reach >2000 cu mm for two consecutive measurements, they are removed from study for other reasons (i.e. weight loss >20%, ulceration on tumor, etc.) or until the end of the study. After euthanization the tumors may be removed and subject to dissociation for flow analysis and/or FFPE for IHC analysis.
The above protocol was used to generate the results in FIG. 17 at the dosages indicated. In almost every case, Balb/c mice that were inoculated with 0.5×10^5 CT-26 colorectal tumor cells on the right hind quarter developed tumors that, when treated i.p. with vehicle (2% glycerol) only, and progressed as expected. […] FIG. 17.

For the molecule `CCCCCCCCCCC[C@H](CC(=O)N[C@H]1[C@H](OC[C@H](NC(=O)C[C@@H](CCCCCCCCCCC)OCCCCCCCCCC)C(=O)O)O[C@H](CO)[C@@H](OP(=O)(O)O)[C@@H]1OC(=O)C[C@@H](CCCCCCCCCCC)OCCCCCCCCCC)OCCCCCCCCCC` [CRX-601], the “Mean % Inhibition” value by setting is: (4 ug, study day 14 (9/16)) −59.63%; (4 ug, study day 17 (9/19)) 4.57%; (4 ug, study day 21 (9/23)) −1.55%; (4 ug, study day 24 (9/26)) 21.73%; (4 ug, study day 28 (9/30)) 7.65%; (4 ug, study day 31 (10/3)) −34.14%. The “Mean % Inhibition” value (20 ug, study day 14 (9/16)) was 42.34%; the “Mean % Inhibition” value (20 ug, study day 17 (9/19)) turned out to be 69.46%; the “Mean % Inhibition” value (20 ug, study day 21 (9/23)) is given as 50.75%; the “Mean % Inhibition” value (20 ug, study day 24 (9/26)) was determined as 66.96%; the “Mean % Inhibition” value (20 ug, study day 28 (9/30)) is 50.75%; the “Mean % Inhibition” value (20 ug, study day 31 (10/3)) is on record as −18.27%. The “Mean % Inhibition” value (100 ug, study day 14 (9/16)) is reported as 68.20%; the “Mean % Inhibition” value (100 ug, study day 17 (9/19)) stood at 92.51%; the “Mean % Inhibition” value (100 ug, study day 21 (9/23)) came out at 98.50%; the “Mean % Inhibition” value (100 ug, study day 24 (9/26)) is 93.21%; the “Mean % Inhibition” value (100 ug, study day 28 (9/30)) was found to be 94.68%; the “Mean % Inhibition” value (100 ug, study day 31 (10/3)) is given as 80.15%.

(Values after patent publication US10765690B2, “TLR4 agonists and compositions thereof and their use in the treatment of cancer” (GlaxoSmithKline Intellectual Property Development Limited, priority 2015, dated 2020).)
